pIC50: −log10 of the molar value. Active and inactive are the calls of the source.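 How the source made its calls: active means IC50 at or below 10 µM; inactive means IC50 above 10 µM.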
molecular target: Orexin/Hypocretin receptor type 1 (Homo sapiens) (UniProt O43613); experiment: OX1R antagonist potency, calcium flux, late-stage follow-up, fluorescence, Fluo-8, CHO cells, powder samples (AID 624409); conditions: Fluo-8 calcium fluorescence, orexin A
Sequence (O43613 whole entry, looked up): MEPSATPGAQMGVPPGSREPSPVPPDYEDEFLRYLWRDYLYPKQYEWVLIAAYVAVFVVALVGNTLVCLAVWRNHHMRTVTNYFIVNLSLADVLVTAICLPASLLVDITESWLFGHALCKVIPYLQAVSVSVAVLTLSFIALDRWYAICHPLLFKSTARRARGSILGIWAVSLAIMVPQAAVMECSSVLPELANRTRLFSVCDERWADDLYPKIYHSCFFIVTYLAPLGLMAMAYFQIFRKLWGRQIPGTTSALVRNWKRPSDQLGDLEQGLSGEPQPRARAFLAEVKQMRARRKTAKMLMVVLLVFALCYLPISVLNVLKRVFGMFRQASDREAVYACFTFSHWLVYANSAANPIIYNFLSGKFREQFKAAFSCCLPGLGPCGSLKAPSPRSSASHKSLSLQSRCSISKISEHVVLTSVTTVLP

SMILES | IC50 | pIC50
Cc1ccc(-c2csc3nnc(SCC(=O)Nc4nsc(-c5ccccc5)n4)n23)cc1 | inactive | –
CC(=C/c1ccccc1)/C=C1/SC(N2CCOCC2)=NC1=O | – | 5.04
CSc1cccc(NC(=O)C2CCCN2S(=O)(=O)c2ccc(Br)s2)c1 (stereo unspecified) | – | 5.33
CCN(CC)c1ccc(NC(=O)Cn2c(C(C)NC(=O)c3ccccc3)nc3ccccc32)cc1 (stereo unspecified) | > 59.6 µM (inactive) | –
Cc1ccccc1NC(=O)C1CCCN1S(=O)(=O)c1ccccc1C(F)(F)F (stereo unspecified) | > 19.9 µM (inactive) | –
CCc1cc(C(=O)OCC(=O)N2CCC(c3ccccc3)=N2)sc1C | inactive | –
COc1cccc(/C=C2/Oc3ccccc3N(CC(=O)NCC3CCCO3)C2=O)c1 (stereo unspecified) | – | 5.42
CCSC1=C(C#N)C(c2ccccc2Cl)C(C(=O)c2cccs2)C(O)(C(F)(F)F)N1 (stereo unspecified) | – | 5.30
O=C(CSc1ccc(-c2ccccc2)nn1)c1cccs1 | – | 5.10
Cc1c(NS(=O)(=O)c2cccc(C(=O)OCC(=O)N(C)C3CCCCC3)c2)c(=O)n(-c2ccccc2)n1C | inactive | –
O=c1cc(CN2CC(O)Cc3ccc4ccccc4c32)nc2sccn12 (stereo unspecified) | > 19.9 µM (inactive) | –
Fc1cccc(Nc2nc3ccccc3n3cnnc23)c1 | > 59.6 µM (inactive) | –
CCc1cc2c(SCC(=O)N(CC)c3c(N)n(Cc4ccccc4)c(=O)[nH]c3=O)ncnc2s1 | > 59.6 µM (inactive) | –
CSc1cccc(N2CC(C(=O)NCCN3C(=O)S/C(=C\c4cccnc4)C3=O)CC2=O)c1 (stereo unspecified) | > 19.9 µM (inactive) | –
COc1ccc(OC)c(S(=O)(=O)NCC(c2ccco2)N2CCc3ccccc32)c1 (stereo unspecified) | – | 5.15
O=C(CN1C(=O)/C(=C\c2cccc(Br)c2)Oc2ccccc21)NCC1CCCO1 (stereo unspecified) | – | 5.30
CCOC(=O)N1CCN(C(=O)CSc2ccc(-c3ccccc3)nn2)CC1 | > 59.6 µM (inactive) | –
CN(N=Cc1cc([N+](=O)[O-])ccc1O)c1ccccc1 | > 59.6 µM (inactive) | –
Cc1cccc(C=NNC(=O)c2cc3c(s2)-c2ccccc2CC3)c1 | – | 5.57
COCCCNC(=O)CCC(=O)NNc1nc2ccccc2c2nc(-c3ccccc3)nn12 | inactive | –
Cc1cc(Cl)ccc1OCCCC(=O)NCCN1C(=O)S/C(=C\c2cccnc2)C1=O | – | 5.86
CCn1c(SCC(=O)Nc2ccc3c(c2)c2ccccc2n3CC)nnc1-c1cnccn1 | inactive | –
Cc1noc(C)c1COc1ccc(C(=O)OCC(=O)N2CC(=O)Nc3ccccc32)cc1 | > 19.9 µM (inactive) | –
Cc1cccc(NC(=O)[C@@H]2CCCN2S(=O)(=O)c2ccc(Cl)cc2)c1 | > 19.9 µM (inactive) | –
CCOc1ccccc1C(=O)Nc1ccc2nc3n(c(=O)c2c1)CCCCC3 | inactive | –
COc1cc(OC)c(-c2nc3ccccc3s2)cc1OC | inactive | –

From PubChem BioAssay AID624409 (The Scripps Research Institute Molecular Screening Center, 2012)
